Experimental data reported in patent publication US7919077B2, “Pharmaceutical compositions comprising CCL2 and use of same for the treatment of inflammation” (Yeda Research and Development Co. Ltd., priority 2006, dated 2011).

What was measured:
[1] = Adjuvant arthritis (AA) rat model; format: in vivo, Lewis rats; conditions: rats; CCL2 240 ng daily day 0 to day 5; scored from day 10; FIG. 9
Protocol: Adjuvant Arthritis (AA) induction, assessment and treatment with CCL2-—AA was induced as previously described [Kannan, Theor Biol Med Model. (2005) 2:17] using 1 mg per rat of heat-killed Mt strain H37Ra (Difco). Each experimental and control group included at least eight rats. The day of AA induction was designated as day 0 and disease severity was assessed by direct observation of all four limbs in each animal. An observer blind to the experimental procedure scored AA for clinical manifestation of disease. A relative score between 0 and 4 was assigned to each limb, based on the degree of joint inflammation, redness and deformity. The maximum possible score for an individual animal was 16 [Kannan, supra].
Immediately following AA induction, rats were divided into two groups that were injected daily (from day 0 to day 5) with low dose CCL2 (240 ng in 300 μl of PBS) or PBS as control. Starting from day 10 post induction, the disease was scored as described hereinabove.
Results were presented as the mean±SEM of the difference between the two values for all the animals in each group. Experiments were repeated at least three times and produced similar results.

[2] = tested on: human T cells interacting with ICAM-1 (LFA-1); assay: Laminar flow adhesion assay on ICAM-1 with co-immobilized CCL21; format: cell-based; conditions: low dose chemokine pretreatment
Protocol: Laminar flow adhesion assays—Purified VCAM-1 or ICAM-1-Fc (both from R&D Systems, Minneapolis, Minn.) were coated with or without CCL21 (R&D Systems) on polystyrene plates as previously described [Grabovsky et al., J Exp Med. (2000) 192:495-506; Sigal et al., J Immunol. (2000) 165:442-452]. The polystyrene plates were each assembled on the lower wall of the flow chamber as previously described [Feigelson et al., J Biol Chem. (2001) 276:13891-13901]. All flow experiments were conducted at 37° C. Cells were washed with cation-free H/H medium, resuspended in binding medium (H/H medium supplemented with 1 mM CaCl2 and 1 mM MgCl2) and perfused through the flow chamber at low shear stress (0.5-0.75 dyn/cm^2) for 2 minutes. Tethers were defined as transient or rolling if cells attached briefly (<2 seconds) to the substrate and as arrests if immediately arrested and remaining stationary for at least 5 seconds of continuous flow. Frequencies of adhesive categories within differently pretreated cells were determined as a percentage of cells flowing immediately over the substrates, as previously described [Grabovsky et al., supra]. To assess resistance to detachment over time, accumulated cells were subjected to a shear stress of 5 dyn/cm^2 for 5 minutes. At the indicated time points, the number of cells that remained bound was expressed relative to T cell population originally accumulated in the first 2 minute period of the assay. Over 90% of cellular tethers to VCAM-1 or ICAM-1 were blocked by pretreating cells with VLA-4 or LFA-1 blockers respectively.

[3] = tested on: effector (Th1, Th2) T cells; assay: Cytoskeleton rearrangement (actin polymerization), effector T cells; format: cell-based, mice; conditions: CCL2 0.1 ng/ml
Protocol: T cell sorting—Spleen and […] were obtained from mice as previously described [Shachar I. and Flavell R. A., Science 274:106 (1996)]. T cells were enriched using the MACS system (Miltenyi Biotec, Auburn, Calif.) according to the manufacturer's protocol. Spleen cells were incubated with anti-CD45R (B220) magnetic beads (Miltenyi Biotec, Auburn, Calif.) and the CD45 negative cells were collected. CD4+ T cells were enriched using anti-CD4 magnetic beads (Miltenyi Biotec, Auburn, Calif.). […]
Cytoskeleton rearrangement—T cells were pre-incubated for 30 minutes in the presence or absence of CCL2 (0.1 ng/ml), and then stimulated with either CXCL12 (0.1 mg/ml PeproTech, Inc., Rocky Hill N.J.) or SLC (CCL21, 0.4 mg/ml, PeproTech, Inc., Rocky Hill, N.J.), for 15 seconds. Cells were then immediately fixed with paraformaldehyde, permeabilized and their intracellular F-actin was stained with FITC-phalloidin (Sigma-Aldrich, St. Louis, Mo.), and then analyzed by flow cytometry to determine the state of their cytoskeleton, as previously described [Flaishon, L. F., et al., J. Biol. Chem. 276:46701 (2001)].

[4] = tested on: naïve T cells; assay: Tracking of cells in vivo: homing of naïve T cells to LN and spleen; design: species or system C57BL/6 mice; conditions: cells pre-incubated 30 min with CCL2 0.1 ng/ml, injected i.v., 3 hours, vs control
Protocol: Tracking of cells in vivo—T cells pre-incubated for 30 minutes in the presence or absence of CCL2 (0.1 ng/ml RPMI) were washed, and labeled with […] of the fluorescent dye CFDA-SE (Molecular Probes/Invitrogen, Carlsbad, Calif., USA) for 15 minutes at room temperature. Thereafter, an equal amount (0.33×10^7) of CCL2-treated or -untreated cells were injected i.v. into C57BL/6 mice. After 3 hours, LNs and spleens were collected and the FITC-positive population was analyzed by FACS. The proportion of labeled cells recovered in the LN and spleen was determined as previously described [Flaishon, L. R., J. Exp. Med. 192:1381 (2000)] in four different experiments (10 mice in each group).

In the case of “CCL2: mammalian (e.g., human) CCL2 protein, GenBank NM_002982 / NP_002973; murine CCL2 used in the asthma model”, the “adjuvant arthritis disease score (max 16)” value [1] is reported as “significantly inhibited the onset of the disease”, the “post arrest adhesion strengthening on ICAM-1 (resistance to detachment)” value ([2]; high shear stress 5 dyn/cm^2, FIG. 6b) is reported as “failed to develop adhesion strengthening” and the “LFA-1 activation by surface bound CCL21 (arrest on ICAM-1)” value ([2]; shear stress 0.5 dyn/cm^2, FIG. 6a) is reported as “did not interfere”. The “CCL21 induced cytoskeleton rearrangement of effector cells” value ([3]; CCL21 0.4 mg/ml 15 seconds) was “down-regulated”, the “CXCL12 induced cytoskeleton rearrangement of effector cells” value ([3]; CXCL12 15 seconds) was “down-regulated” and the “reduction in homing of naïve T cells into the LN” value ([4]; FIG. 4a) was 50%. For the same substance, the “migration of T cells to the spleen” value ([4]; FIG. 4b) was “no difference”.
